Measured values as given in paper PMC8093080 (Biochemistry, 2020).

Target: T1, trp RNA-binding attenuation protein (TRAP) (Geobacillus stearothermophilus, UniProt Q9X6J6)
T1 sequence (Q9X6J6 1-74): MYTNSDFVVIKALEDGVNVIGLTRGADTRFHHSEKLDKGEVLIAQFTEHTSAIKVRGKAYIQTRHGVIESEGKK
Assay: ITC at […]°C in phosphate buffer

Question: N[C@@H](Cc1c[nH]c2ccccc12)C(=O)O [Trp, tryptophan] was tested. Which Kd did it give?
Answer: 115 ± 3 nM
